Measured values taken from publication PMC4857598 (Nuclear medicine and biology, 2012).
Where two headings read alike, the source gives them in different places.

Key:
MMP2 = target: T1, MMP2 (Homo sapiens, UniProt P08253); experiment: Ilomastat inhibition of MMP2 activity; format: biochemical; conditions: 910 μM ilomastat, MMP2 1.4 μg, 37 °C, 24 hours, HPLC of fragmented peptide
T1 sequence (P08253 110-660): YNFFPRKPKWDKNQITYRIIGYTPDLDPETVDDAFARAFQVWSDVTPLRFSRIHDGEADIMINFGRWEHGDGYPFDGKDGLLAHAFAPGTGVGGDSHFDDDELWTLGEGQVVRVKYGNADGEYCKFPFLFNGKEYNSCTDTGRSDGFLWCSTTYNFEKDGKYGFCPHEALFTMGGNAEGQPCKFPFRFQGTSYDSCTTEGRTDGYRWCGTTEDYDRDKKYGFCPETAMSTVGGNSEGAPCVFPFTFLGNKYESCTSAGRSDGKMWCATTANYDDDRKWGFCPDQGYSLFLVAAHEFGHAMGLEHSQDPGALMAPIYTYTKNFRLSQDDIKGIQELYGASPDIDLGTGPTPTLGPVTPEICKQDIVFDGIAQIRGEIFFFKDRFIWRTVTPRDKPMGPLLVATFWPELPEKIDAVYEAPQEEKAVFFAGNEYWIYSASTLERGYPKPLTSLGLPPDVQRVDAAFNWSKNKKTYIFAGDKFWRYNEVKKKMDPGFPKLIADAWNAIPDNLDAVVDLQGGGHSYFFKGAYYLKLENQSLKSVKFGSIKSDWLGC

Integrin αvβ3 [1] = conditions: read-out: IC50 value by cell adhesion; cited from earlier work
Integrin αvβ3 [2] = conditions: read-out: IC50 value by fluorescence polarization; cited from earlier work
αvβ3 [3] = conditions: read-out: IC50 value; published pentapeptides; cited from earlier work
αvβ3 [4] = conditions: read-out: IC50 value; published pentapeptides; cited from earlier work; remark: listed apart in the source

CNC(=O)[C@H](Cc1c[nH]c2ccccc12)NC(=O)[C@@H](CC(=O)NO)CC(C)C [ilomastat, N-[(2R)-2-(hydroxamidocarbonylmethyl)-4-methylpentanoyl]-L-tryptophan methylamide]
inhibition of MMP2 cleavage of [64Cu]c(RGDfE)K(DOTA)PLGVRY (MMP2): inhibition of the peptide cleavage

c(ERGDf) (head to tail)
IC50 (Integrin αvβ3 [1]): 3200 ± 160 nM | IC50 (Integrin αvβ3 [2]): 280 ± 4 nM

c(RGDfK)
IC50 (αvβ3 [3]): 4.2 nM

c(rGDFV) (head to tail)
IC50 (αvβ3 [4]): 25000 ± 4000 nM
